These are literature values, as cited in patent US20090143360A1, “Oxcarbazepine Formulation” (priority 2005, published 2009).

`NC(=O)N1c2ccccc2CC(=O)c2ccccc21` [Oxcarbazepine, 10,11-Dihydro-10-oxo-5H-dibenz[b,f]azepine-5-carboxamide]: the Solubility in water result was “very low”.
